Test results: EP2048133A1 (Pharmeste S.r.l., priority 2007, dated 2009)
In brackets after ≈: the same amount, converted by molar mass. Like-named read-outs stand apart in the source and are kept apart here. Values belong to the compound of their own block, whether it stands above or below them.

Assays:
[1] = Thermodynamic solubility in PBS; assay type: physicochemical; conditions: phosphate buffer pH 7.4, room temperature, stirring 36h, HPLC
Procedure: The standard solution was prepared by dissolving 1.4 mg of V405 in 10 mL of acetonitrile. A saturated solution of V405 was prepared by stirring 10 mL of phosphate buffer pH 7.4 in the presence of 10 mg of compound. The stirring was conducted at room temperature for 36h. The supernatant was filtered through a Millipore […] filter and 10 µL were used as sample for the HPLC determination. (Eluents: A = Water with 0.1% TFA, B = Acetonitrile + 0.1% TFA, Gradient: 0-100% B in 25 min, Column: SYMMETRY 300 C18 5 µM; 4,6 X 150 MM, […]). The solubility was determined by the following relationship: C'= percent area' C/percent area where C= concentration of standard solution (mg/ml), percent area': area of the peak of standard solution, percent area: area of the peak of saturated solution, C'= concentration of the saturated solution. The solubility was then expressed as […].

CYP1A2 = biological target: T1, CYP1A2 (Homo sapiens, UniProt P05177); experiment: Fluorometric cytochrome P450 inhibition assay; assay type: in vitro ADME; conditions: tested from 0.1 µM to 10 µM, 37°C, read-out: Cytochrome P450 subtypes µM inhibition (estimated IC50) CYP1A2
T1 sequence (P05177 1-516): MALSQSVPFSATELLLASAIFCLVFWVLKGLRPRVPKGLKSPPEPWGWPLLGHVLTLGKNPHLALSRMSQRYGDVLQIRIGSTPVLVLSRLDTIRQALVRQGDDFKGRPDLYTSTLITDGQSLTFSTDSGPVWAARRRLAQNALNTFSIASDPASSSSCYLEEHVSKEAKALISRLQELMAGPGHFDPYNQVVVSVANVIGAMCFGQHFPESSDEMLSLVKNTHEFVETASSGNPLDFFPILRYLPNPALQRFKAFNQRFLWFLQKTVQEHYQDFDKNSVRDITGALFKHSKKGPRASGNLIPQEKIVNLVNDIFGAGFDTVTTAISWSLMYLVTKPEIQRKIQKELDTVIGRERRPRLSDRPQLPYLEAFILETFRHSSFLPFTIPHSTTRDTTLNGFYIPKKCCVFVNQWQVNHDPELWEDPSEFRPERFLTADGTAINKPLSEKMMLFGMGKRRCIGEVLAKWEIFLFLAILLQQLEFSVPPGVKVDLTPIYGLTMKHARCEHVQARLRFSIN
Procedure: (§1) A microtiter plate-based, direct, fluorometric assay was performed to analyze V405 inhibition potential of activities catalyzed by six of the major human liver cytochromes P450 (CYP) enzymes: CYP1A2, CYP2C9, CYP2C19, CYP2D6, CYP2E1 and CYP3A4. The six cytochrome P450 subtypes inhibition was tested from 0.1 µM to10 µM.
(§2) Four dilution points were evaluated (10 µM, 2.15 µM, 0.46 µM and 0.1 µM). A lid was placed on the plate and plate was placed at 37°C in a plate incubator for at least 10 minutes (to pre-warm the buffer and the plate). The reaction started when 0.1 mL enzyme/substrate solution mix was added to test wells. The plate was mixed and the reaction was continued incubating the lid-covered plate at 37°C for the desired time.
(§3) A stop solution was then added to all wells. and an enzyme/substrate mix was dispensed to the inverted blank wells (negative controls).
(§4) >The IC50 was calculated with a typical logistic curve fitting : % Inib = (Min-Max)/(1 + ((Conc)/(IC50)())^p) + Max [formula]

CYP2C19 = CYP2C19 (Homo sapiens, UniProt P33261); experiment: Fluorometric cytochrome P450 inhibition assay; assay type: in vitro ADME; conditions: tested from 0.1 µM to 10 µM, 37°C, read-out: Cytochrome P450 subtypes µM inhibition (estimated IC50) CYP2C19
CYP2C19, sequence (P33261 whole entry): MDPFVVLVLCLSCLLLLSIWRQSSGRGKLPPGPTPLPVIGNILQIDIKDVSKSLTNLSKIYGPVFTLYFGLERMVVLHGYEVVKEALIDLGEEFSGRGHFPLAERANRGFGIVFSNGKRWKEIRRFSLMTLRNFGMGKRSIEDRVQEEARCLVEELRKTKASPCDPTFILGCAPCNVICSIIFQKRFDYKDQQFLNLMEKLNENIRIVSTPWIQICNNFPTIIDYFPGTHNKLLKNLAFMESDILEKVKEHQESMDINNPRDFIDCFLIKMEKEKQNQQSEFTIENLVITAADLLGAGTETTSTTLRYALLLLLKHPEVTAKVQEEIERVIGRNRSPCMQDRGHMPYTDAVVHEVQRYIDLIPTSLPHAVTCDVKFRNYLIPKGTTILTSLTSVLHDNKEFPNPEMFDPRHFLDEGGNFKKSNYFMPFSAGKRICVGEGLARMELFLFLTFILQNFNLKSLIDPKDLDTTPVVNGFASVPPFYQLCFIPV
Procedure: as §1, §2, §3, §4

CYP2C9 = CYP2C9 (Homo sapiens, UniProt P11712); experiment: Fluorometric cytochrome P450 inhibition assay; assay type: in vitro ADME; conditions: tested from 0.1 µM to 10 µM, 37°C, read-out: Cytochrome P450 subtypes µM inhibition (estimated IC50) CYP2C9
CYP2C9, sequence (P11712 whole entry): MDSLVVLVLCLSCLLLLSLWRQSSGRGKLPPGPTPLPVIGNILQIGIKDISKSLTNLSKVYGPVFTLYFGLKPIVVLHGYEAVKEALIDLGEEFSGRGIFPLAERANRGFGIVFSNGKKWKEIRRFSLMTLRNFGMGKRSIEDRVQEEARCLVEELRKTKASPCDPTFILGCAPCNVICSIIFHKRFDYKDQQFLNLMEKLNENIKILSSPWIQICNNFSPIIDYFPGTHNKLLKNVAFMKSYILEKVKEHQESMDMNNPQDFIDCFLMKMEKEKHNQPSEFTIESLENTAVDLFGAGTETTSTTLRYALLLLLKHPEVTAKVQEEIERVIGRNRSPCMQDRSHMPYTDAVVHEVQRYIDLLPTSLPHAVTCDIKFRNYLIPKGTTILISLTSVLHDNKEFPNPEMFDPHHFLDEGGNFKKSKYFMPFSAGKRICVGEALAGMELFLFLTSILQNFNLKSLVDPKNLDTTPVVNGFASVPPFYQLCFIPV
Procedure: as §1, §2, §3, §4

CYP2D6 = CYP2D6 (Homo sapiens, UniProt P10635); experiment: Fluorometric cytochrome P450 inhibition assay; assay type: in vitro ADME; conditions: tested from 0.1 µM to 10 µM, 37°C, read-out: Cytochrome P450 subtypes µM inhibition (estimated IC50) CYP2D6
CYP2D6, sequence (P10635 whole entry): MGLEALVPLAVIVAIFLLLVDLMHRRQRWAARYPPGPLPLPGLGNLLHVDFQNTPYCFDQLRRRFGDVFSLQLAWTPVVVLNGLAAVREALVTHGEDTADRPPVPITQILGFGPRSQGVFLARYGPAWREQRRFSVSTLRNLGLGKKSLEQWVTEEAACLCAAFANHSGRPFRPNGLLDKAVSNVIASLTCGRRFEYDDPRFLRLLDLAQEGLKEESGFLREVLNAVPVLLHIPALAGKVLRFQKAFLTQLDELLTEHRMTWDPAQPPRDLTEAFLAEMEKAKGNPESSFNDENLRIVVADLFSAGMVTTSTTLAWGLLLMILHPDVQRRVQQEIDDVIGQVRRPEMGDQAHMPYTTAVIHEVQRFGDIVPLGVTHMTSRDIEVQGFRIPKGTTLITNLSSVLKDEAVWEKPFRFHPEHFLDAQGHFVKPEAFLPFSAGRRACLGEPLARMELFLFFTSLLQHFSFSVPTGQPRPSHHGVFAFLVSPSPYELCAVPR
Procedure: as §1, §2, §3, §4

CYP2E1 = CYP2E1 (Homo sapiens, UniProt P05181); experiment: Fluorometric cytochrome P450 inhibition assay; assay type: in vitro ADME; conditions: tested from 0.1 µM to 10 µM, 37°C, read-out: Cytochrome P450 subtypes µM inhibition (estimated IC50) CYP2E1
CYP2E1, sequence (P05181 whole entry): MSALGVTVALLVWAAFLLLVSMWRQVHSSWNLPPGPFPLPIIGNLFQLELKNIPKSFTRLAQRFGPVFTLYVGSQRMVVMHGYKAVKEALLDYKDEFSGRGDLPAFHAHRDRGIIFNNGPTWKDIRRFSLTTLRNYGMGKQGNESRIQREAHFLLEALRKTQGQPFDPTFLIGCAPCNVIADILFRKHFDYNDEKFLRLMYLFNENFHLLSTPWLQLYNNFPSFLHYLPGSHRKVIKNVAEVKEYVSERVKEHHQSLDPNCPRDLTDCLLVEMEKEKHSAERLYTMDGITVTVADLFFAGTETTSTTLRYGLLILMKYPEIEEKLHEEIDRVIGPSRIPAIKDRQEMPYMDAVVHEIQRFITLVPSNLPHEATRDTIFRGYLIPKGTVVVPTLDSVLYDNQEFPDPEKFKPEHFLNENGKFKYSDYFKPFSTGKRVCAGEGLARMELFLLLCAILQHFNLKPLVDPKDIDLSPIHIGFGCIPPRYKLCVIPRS
Procedure: as §1, §2, §3, §4

CYP3A4 = CYP3A4 (Homo sapiens, UniProt P08684); experiment: Fluorometric cytochrome P450 inhibition assay; assay type: in vitro ADME; conditions: tested from 0.1 µM to 10 µM, 37°C, read-out: Cytochrome P450 subtypes µM inhibition (estimated IC50) CYP3A4
CYP3A4, sequence (P08684 whole entry): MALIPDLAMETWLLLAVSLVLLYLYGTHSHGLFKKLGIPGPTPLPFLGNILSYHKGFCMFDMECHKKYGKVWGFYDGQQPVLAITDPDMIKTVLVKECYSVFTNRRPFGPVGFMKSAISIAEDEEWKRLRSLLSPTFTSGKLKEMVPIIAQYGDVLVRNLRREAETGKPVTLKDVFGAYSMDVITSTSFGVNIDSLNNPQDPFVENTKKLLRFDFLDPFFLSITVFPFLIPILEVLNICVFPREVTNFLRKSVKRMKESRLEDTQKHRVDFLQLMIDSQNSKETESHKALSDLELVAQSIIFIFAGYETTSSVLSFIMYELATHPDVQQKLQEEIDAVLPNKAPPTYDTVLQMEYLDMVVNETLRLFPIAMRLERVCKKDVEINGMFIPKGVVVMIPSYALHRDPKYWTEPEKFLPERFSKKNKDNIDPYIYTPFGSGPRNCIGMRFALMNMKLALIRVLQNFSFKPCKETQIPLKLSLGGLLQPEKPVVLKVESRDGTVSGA
Procedure: as §1, §2, §3, §4

[2] = system: six of the major human liver cytochromes P450 (CYP) enzymes; experiment: Cytochrome P450 inhibition, whole panel (qualitative statement); assay type: in vitro ADME; conditions: panel of six CYPs, each concentration tested (0.1-10 µM)
Procedure: as §1, §2, §3, §4

[3] = biological target: T2, TRPV1 expressed in rat spinal cord (Rattus norvegicus, UniProt O35433); experiment: Radioligand binding assay ([3H]-RTX, spinal cord membranes)
T2 construct: the spinal cord was removed and disrupted using a Polytron tissue homogenizer; from tissue; host or cells: rat spinal cord membranes
T2 sequence (O35433 whole entry): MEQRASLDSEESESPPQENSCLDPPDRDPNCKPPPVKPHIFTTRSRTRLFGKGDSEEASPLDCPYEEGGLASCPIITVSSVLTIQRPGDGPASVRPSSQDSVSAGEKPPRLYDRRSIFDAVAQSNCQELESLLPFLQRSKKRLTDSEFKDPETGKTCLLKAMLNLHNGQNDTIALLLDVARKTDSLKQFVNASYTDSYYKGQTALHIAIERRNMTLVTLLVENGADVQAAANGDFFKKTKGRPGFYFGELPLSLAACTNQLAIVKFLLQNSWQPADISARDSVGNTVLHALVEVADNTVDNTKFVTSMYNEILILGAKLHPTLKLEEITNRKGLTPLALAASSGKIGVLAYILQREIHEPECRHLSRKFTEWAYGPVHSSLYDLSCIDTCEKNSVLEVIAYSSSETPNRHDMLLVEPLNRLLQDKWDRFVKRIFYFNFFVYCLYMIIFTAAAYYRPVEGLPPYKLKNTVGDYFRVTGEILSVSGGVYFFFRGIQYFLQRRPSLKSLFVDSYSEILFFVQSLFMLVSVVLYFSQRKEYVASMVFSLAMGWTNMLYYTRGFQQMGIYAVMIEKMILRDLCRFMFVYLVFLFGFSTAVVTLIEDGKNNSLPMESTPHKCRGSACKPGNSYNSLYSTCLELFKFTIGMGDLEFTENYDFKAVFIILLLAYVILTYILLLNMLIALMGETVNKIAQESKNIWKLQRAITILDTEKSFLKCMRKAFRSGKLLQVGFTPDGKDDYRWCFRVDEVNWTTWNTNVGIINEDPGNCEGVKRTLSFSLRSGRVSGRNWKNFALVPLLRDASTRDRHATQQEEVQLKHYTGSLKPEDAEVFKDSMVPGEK
Procedure: Male Sprague-Dawley rats with body weight between 250 to 350 g at the time for testing were used. For binding assays rats were sacrificed by decapitation under anesthesia and the spinal cord was removed and disrupted using a Polytron tissue homogenizer in ice cold buffer containing 5 mM KCl, 5.8 mM NaCl, 0.75 mM CaCl2, 2 mM MgCl2, 320 mM sucrose, 10 mM Hepes, pH 8.6.^5 The homogenized tissue was centrifuged at 1000 x g for 10 min at 4°C and the supernatant was centrifuged again at 35000 x g for 30 min at 4°C (Beckman Avanti J25). The pellet was resuspended in the same buffer as described above and used in binding experiments. In saturation experiments, 150 µg protein/sample from membrane suspensions were incubated with [^3H]-Resiniferatoxin ([^3H]-RTX) (0.003-3 nM) in the assay buffer containing 0.25 mg/ml fatty acid-free bovine serum albumin at 37°C for 60 min. In competition experiments, the membranes were incubated at 37°C for 60 min with [^3H]RTX (0.4 nM) and with increasing concentrations (from 0.1 nM to 3 µM) of examined compounds.
Non specific binding was evaluated in the presence of 1 µM RTX. After incubation the reaction mixture was cooled at 0°C and incubated with bovine α1-acid glycoprotein (200 µg per tube) for 15 min to reduce non-specific RTX binding. Membrane-bound RTX was separated from free RTX by centrifuging the samples at 18500 x g for 15 min. The tip of the microcentrifuge tube containing the pellet was cut off and the radioactivity was determined by scintillation counting (Packard 2500 TR). Protein concentration was determined according to a Bio-Rad method with bovine serum albumin as a standard reference (Bradford, 1976). Saturation and competition studies were analyzed with the Ligand program.

TRPV1 expressing neurons = biological target: T3, TRPV1 expressing neurons (Rattus norvegicus, UniProt O35433); experiment: Ca2+ fluorescence measurements in cultured dorsal root ganglia neurones; assay type: cell-based
T3 construct: Adult rats were terminally anaesthetized and decapitated; Dorsal root ganglia were removed; endogenous in cells; host or cells: primary cultured adult rat dorsal root ganglia neurons
T3 sequence (O35433 whole entry): as above
Procedure: Adult rats were terminally anaesthetized and decapitated. […] The ganglia, placed in cold DMEM supplemented with 10% fetal bovine serum, 2 mM L-glutamine, 100 U/ml penicillin and 100 µg/ml streptomycin, were dissociated in single cells by several passages through a series of syringe needles (23G down to 25G). The medium and the ganglia were filtered to remove debris, topped up with 8 ml of DMEM medium and centrifuged (200 x g for 5 min). […] The cells were then washed twice with the Ca^2+ buffer solution and transferred to a chamber on the stage of a Nikon eclipse TE300 microscope. […] A calibration curve was set up using buffer containing Fura-2-AM-ester and determinant concentrations of free Ca^2+. This curve was then used to convert the data obtained from the F340/F380 ratio to [Ca^2+]¡ (nM).

[4] = Capsaicin-induced secondary allodynia; assay type: in vivo, rat; conditions: 30 µmol/kg orally 2 hours prior to capsaicin (5 nmols/50 µl/paw); 30 min after capsaicin challenge
Procedure: Capsaicin (5 nmols/50 µl/paw) was injected in the plantar surface of the glabrous skin of the right paw of rats anesthetized with diethyl ether (Chaplan et al., 1994). Compound V405 was orally administrated (30 µmol/kg) 2 hours prior to capsaicin injection. Tactile allodynia was evaluated 30 min after capsaicin challenge.

[5] = Body temperature measurements; assay type: in vivo, rat; conditions: 30 µmol/kg orally; for body temperature change: monitored for more than 3 hours
Procedure: Rats were placed in individual cages at room temperature (22-25°C). Rectal temperatures were recorded from awake animals by repeated insertion of a lubricated rectal thermocouple probe (model-8402-00, Cole-Palmer Instrument Company) prior to and following orally administration of V405 at 30 µmil/kg.

[6] = 0.1 µM capsaicin; mean and 95% fiducial limits; read-out: IC50 of inhibition of capsaicin-evoked [Ca2+]i mobilization

Structure (SMILES): O=C(Nc1ccc(Cl)cc1)c1ccc(-c2cccc3cnccc23)[n+]([O-])c1 [Example V405]
solubility thermodynamic at 36 h ([1]; 2160 min): 106.4 µM (≈ 40 µg/mL)
solubility thermodynamic at 36 h ([1]; phosphate buffer, pH 7.4, aqueous buffer): 106 µM (≈ 39.8 µg/mL)
IC50 (CYP1A2): > 10 µM
IC50 (CYP2C19): > 10 µM
IC50 (CYP2C9): > 10 µM
IC50 (CYP2D6): > 10 µM
IC50 (CYP2E1): > 10 µM
IC50 (CYP3A4): > 10 µM
interaction with the evaluated cytochromes [2]: does not interact
Ki [3]: 0.203 µM
IC50 (TRPV1 expressing neurons; read-out: IC50 of inhibition of capsaicin-evoked [Ca2+]i mobilization; 0.1 µM capsaicin; mean and 95% fiducial limits): 0.015 µM
preventive effect against the pro-allodinic effect of capsaicin [4]: 55%
body temperature change [5]: No significant temperature change
body temperature change ([5]; listed as compound 1): does not cause thermal increase

Structure (SMILES): C=C(C)[C@]12C[C@@H](C)[C@@]34O[C@](Cc5ccccc5)(O[C@@H]1[C@@H]3C=C(COC(=O)Cc1ccc(O)c(OC)c1)C[C@]1(O)C(=O)C(C)=C[C@@H]41)O2 [[^3H]-RTX, [^3H]-Resiniferatoxin]
Kd ([3]; saturation curve, [3H]-RTX 0.003-3 nM, 37°C, 60 min, mean (95% limits)): 0.00021 µM

Structure (SMILES): O=C(Nc1ccc(Cl)cc1)c1ccc(-c2cccc3cnccc23)nc1 [non-oxidized homologous, N-(4-chlorophenyl)-6-(isoquinolin-5-yl)pyridine-3-carboxamide, reference compound]
Thermodynamic solubility [1]: not soluble
temperature increase (mean value) with respect to control animals ([5]; during the whole experiment (more than 3 hours)): +0.5 °C

Further lines, results first:

Ki ([3]; competition with [3H]RTX (0.4 nM), 37°C, 60 min, read-out: Ki): 0.036 µM
IC50 (TRPV1 expressing neurons; [6]): 0.0087 µM
Structure (SMILES): COc1cccc(NC(=O)/C=C/c2ccc(Cl)cc2)c1 [SB-366791, (E)-3-(4-chlorophenyl)-N-(3-methoxyphenyl)acrylamide]

IC50 (TRPV1 expressing neurons; [6]): 0.948 µM
Structure (SMILES): Oc1cc2c(cc1O)CN(C(=S)NCCc1ccc(Cl)cc1)CCC2 [capsazepine]
